PMC8151276, “An Integrated Approach toward NanoBRET Tracers for Analysis of GPCR Ligand Engagement” (Molecules, 2021)

Columns and labels:
Type in all cases: binding
GCGR = molecular target: T1, GCGR (Homo sapiens, UniProt P47871); experiment: NanoBRET screen HiBiT-GCGR in HEK293
T1 construct: purchased Promega (in-house HiBiT-GPCR construct library, NanoBRET)
Protocol: (§1) Each tracer candidate was screened across the entire library of HiBiT-GPCR constructs using NanoBRET as the detection modality. As depicted in Figure 4A, the specificity of interactions was evaluated through decrease in BRET due to competitive displacement of a bound tracer by excess parental compound. Each tracer was analyzed for binding to each HiBiT-GPCR fusion in the absence and in the presence of competing parental compound. Briefly, HEK293 cells were transfected with HiBiT-GPCR constructs diluted into promoterless DNA to reduce expression and maximize translocation to the cell surface. Each tracer candidate was then screened at concentrations of 1 μM and 0.1 μM across cells expressing these fusions. Cells were treated for 1.5 h with tracer either alone or in the presence of 20 μM competing parental compound (i.e., control). BRET was measured upon addition of purified LgBiT and subsequent complementation with HiBiT genetically fused to a GPCR. The specificity of interactions was assessed through a decrease in BRET signal due to competitive displacement of the bound tracer. To further gauge the robustness of these interactions, the fold response over the control (i.e., BRETtracer/BRETcontrol) was calculated. We chose a 1.5-fold response, which translates to ≥7-fold signal over noise as the minimal threshold required to score an interaction as positive. […]. Below we highlight the screening results obtained for our exemplary fluorescent tracers based on Clozapine, Amitriptyline and AZD1283.
(§2) HiBiT-GPCR DNA constructs were diluted in 10 mM Tris pH 8 to a final concentration of 0.01 μg/μL, arrayed in 96-well plates and stored at −20 °C. For transfection, HEK293 cells were suspended in Opti-MEM (without phenol red) supplemented with 2% fetal bovine serum (Seradigm) and 100 units/mL penicillin–streptomycin (Gibco) at a final concentration of 220,000 cells/mL and dispensed into white 96-well plates at 90 μL/well. Subsequent transfections and screens were carried using an Agilent Bravo Automated Liquid Handling Platform. First, the 96-well HiBiT DNA arrays were diluted 25-fold in Opti-MEM (without serum or phenol red) to a final concentration of 0.0004 μg/μL and 20 μL of the diluted DNAs were transferred into new 96-well plates. Next, promoterless carrier DNA (1 μg/μL) was diluted 25-fold (0.04 μg/μL) and then dispensed into the diluted arrays at 20 μL/well. Following brief mixing, Viafect transfection reagent (Promega) diluted 16-fold into Opti-MEM was dispensed into the plates at 40 μL/well. After mixing by pipetting, plates were incubated for 10 min on the pipetting station deck. The DNA-transfection reagent complexes were then added to plates containing cells. To facilitate the screen, 10 μL of DNA-transfection reagent complexes were added in duplicates to the top 4 and bottom 4 rows, resulting in two identical 48-well arrays per plate. Plates with transfected cells were incubated for 18–20 h at 37 °C/5% CO2. A screen of each tracer across the entire library using two different concentrations requires duplicate plates of transfected cells. Depending on the number of tracers being screened, transfections can be scaled up using the same ratios. The next day, for each tracer, four 20× screening solutions in tracer dilution buffer (Promega) were prepared: two duplicates at final concentration of 20 μM and two duplicates at a final concentration of 2 μM. A competing unmodified compound was added to one of each duplicate at a final concentration of 400 μM. The four resulting solutions were diluted 4-fold in Opti-MEM without serum or phenol red to generate 5× solutions (5 µM and 0.5 µM tracer +/− 100 μM competing compound). To screen the library, a BioTek MultiFlo FX liquid dispenser was used to dispense 22.5 µL of tracer solution to the top 4 rows and 22.5 µL tracer + competing compound solution to the 4 bottom rows. Plates were briefly mixed on an orbital shaker and incubated for 1.5 h at room temperature. […]

NPBWR2 = molecular target: T2, NPBWR2 (Homo sapiens, UniProt P48146); experiment: NanoBRET screen HiBiT-NPBWR2 in HEK293
T2 construct: purchased Promega (in-house HiBiT-GPCR construct library, NanoBRET)
T2 sequence (P48146 whole entry): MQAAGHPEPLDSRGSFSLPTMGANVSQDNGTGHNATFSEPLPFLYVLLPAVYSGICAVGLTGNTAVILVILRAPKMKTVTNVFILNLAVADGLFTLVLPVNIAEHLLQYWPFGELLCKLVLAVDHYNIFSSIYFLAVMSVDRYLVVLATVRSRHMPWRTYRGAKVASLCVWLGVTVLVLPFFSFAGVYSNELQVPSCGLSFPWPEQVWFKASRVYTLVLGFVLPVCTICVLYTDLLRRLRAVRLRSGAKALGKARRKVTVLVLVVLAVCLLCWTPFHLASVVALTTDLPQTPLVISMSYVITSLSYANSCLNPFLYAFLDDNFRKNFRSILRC
Protocol: as §1, §2

HTR4 = molecular target: T3, HTR4 (Homo sapiens, UniProt Q13639); experiment: NanoBRET screen HiBiT-HTR4 in HEK293
T3 construct: purchased Promega (in-house HiBiT-GPCR construct library, NanoBRET)
T3 sequence (Q13639 whole entry): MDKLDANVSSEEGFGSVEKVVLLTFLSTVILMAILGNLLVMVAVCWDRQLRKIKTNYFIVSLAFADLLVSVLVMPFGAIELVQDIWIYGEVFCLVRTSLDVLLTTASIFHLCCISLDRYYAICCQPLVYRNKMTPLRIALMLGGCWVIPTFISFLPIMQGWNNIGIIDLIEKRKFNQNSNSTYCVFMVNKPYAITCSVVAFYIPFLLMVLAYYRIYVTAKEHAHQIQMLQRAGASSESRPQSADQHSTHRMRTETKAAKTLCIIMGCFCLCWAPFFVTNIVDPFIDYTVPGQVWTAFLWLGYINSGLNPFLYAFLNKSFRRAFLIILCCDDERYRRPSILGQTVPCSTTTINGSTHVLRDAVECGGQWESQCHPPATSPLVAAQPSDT
Protocol: as §1, §2

CXCR3 = molecular target: T4, CXCR3 (Homo sapiens, UniProt P49682); experiment: NanoBRET screen HiBiT-CXCR3 in HEK293
T4 construct: purchased Promega (in-house HiBiT-GPCR construct library, NanoBRET)
T4 sequence (P49682 1-368): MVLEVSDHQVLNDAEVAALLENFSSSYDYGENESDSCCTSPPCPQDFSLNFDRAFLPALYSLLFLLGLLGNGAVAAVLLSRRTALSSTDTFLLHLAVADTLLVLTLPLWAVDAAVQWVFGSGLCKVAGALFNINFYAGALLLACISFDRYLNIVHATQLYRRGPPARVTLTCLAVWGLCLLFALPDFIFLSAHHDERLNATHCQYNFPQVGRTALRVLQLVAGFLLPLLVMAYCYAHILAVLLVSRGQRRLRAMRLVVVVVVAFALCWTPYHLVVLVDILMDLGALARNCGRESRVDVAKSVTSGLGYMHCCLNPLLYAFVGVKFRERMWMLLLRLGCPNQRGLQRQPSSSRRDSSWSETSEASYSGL
Protocol: as §1, §2

HCRTR2 = molecular target: T5, HCRTR2 (Homo sapiens, UniProt O43614); experiment: NanoBRET screen HiBiT-HCRTR2 in HEK293
T5 construct: purchased Promega (in-house HiBiT-GPCR construct library, NanoBRET)
T5 sequence (O43614 1-444): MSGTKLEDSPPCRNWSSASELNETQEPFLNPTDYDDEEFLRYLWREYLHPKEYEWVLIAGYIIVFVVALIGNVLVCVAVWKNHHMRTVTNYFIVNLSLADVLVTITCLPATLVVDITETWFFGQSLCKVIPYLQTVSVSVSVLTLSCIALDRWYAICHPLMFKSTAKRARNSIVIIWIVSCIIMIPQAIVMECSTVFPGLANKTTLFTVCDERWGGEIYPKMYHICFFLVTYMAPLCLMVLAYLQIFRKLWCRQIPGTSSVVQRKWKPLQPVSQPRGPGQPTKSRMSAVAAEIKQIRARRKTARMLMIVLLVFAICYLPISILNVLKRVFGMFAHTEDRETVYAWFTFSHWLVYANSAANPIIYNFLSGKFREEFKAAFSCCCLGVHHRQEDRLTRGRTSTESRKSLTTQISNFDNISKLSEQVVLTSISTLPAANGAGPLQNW
Protocol: as §1, §2

OPRK1 = molecular target: T6, OPRK1 (Homo sapiens, UniProt P41145); experiment: NanoBRET screen HiBiT-OPRK1 in HEK293
T6 construct: purchased Promega (in-house HiBiT-GPCR construct library, NanoBRET)
T6 sequence (P41145 whole entry): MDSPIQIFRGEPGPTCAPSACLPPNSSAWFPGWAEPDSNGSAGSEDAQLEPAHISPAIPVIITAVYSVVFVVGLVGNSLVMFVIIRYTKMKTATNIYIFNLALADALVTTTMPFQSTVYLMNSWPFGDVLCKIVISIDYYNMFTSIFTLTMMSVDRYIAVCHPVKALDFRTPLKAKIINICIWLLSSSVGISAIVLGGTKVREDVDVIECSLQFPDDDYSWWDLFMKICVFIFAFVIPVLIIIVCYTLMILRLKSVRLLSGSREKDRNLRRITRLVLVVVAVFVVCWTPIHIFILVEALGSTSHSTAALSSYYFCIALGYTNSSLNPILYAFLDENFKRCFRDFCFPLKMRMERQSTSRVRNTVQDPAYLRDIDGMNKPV
Procedure, shortened: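 Binding detection relied on energy transfer from complemented HiBiT/LgBiT luciferase to bound tracer. Assays used HEK293 cells transfected with diluted HiBiT-GPCR DNA and tracer at 1 μM or 0.1 μM for 1.5 h.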

[1] = tracer at 0.1μM, listed as amitriptyline-b-2-NB590
[2] = tracer at 1μM, listed as amitriptyline-b-2-NB590

T1 sequence (P47871 26-477): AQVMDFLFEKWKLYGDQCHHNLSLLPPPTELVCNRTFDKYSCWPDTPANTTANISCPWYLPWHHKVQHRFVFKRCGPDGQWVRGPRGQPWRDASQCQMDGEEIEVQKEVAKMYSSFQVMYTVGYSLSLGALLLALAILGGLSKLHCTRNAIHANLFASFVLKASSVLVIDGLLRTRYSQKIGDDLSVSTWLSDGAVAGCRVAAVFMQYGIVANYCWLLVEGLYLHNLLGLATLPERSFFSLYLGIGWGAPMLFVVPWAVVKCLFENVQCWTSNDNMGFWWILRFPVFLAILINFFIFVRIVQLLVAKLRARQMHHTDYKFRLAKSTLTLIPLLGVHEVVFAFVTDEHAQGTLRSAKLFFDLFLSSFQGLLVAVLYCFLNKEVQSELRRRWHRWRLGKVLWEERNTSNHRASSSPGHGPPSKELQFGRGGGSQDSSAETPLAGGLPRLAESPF

Compound | NanoBRET Fold Response (GCGR; GCGR, tracer 0.1μM) | NanoBRET Fold Response (GCGR; GCGR, tracer 1μM) | NanoBRET Fold Response (NPBWR2; NPBWR2, tracer 0.1μM) | NanoBRET Fold Response (NPBWR2; NPBWR2, tracer 1μM) | NanoBRET Fold Response (HTR4; HTR4, tracer 0.1μM) | NanoBRET Fold Response (HTR4; HTR4, tracer 1μM) | NanoBRET Fold Response (CXCR3; CXCR3, tracer 0.1μM) | NanoBRET Fold Response (CXCR3; CXCR3, tracer 1μM) | NanoBRET Fold Response (HCRTR2; HCRTR2, tracer 0.1μM) | NanoBRET Fold Response (HCRTR2; HCRTR2, tracer 1μM) | NanoBRET Fold Response (OPRK1; OPRK1, tracer 0.1μM) | NanoBRET Fold Response (OPRK1; OPRK1, tracer 1μM) | further results
COc1ccc2[nH]c(-c3ccc(CNC(=O)CCOCCOCCOCCOCCNC(=O)CCc4ccc5n4[B-](F)(F)[N+]4=C(c6ccc[nH]6)C=CC4=C5)cc3)c(CCNC(C)=O)c2n1 [AzomelatoninICO9-2-NB590] | – | – | – | – | – | – | – | – | – | – | – | – | NanoBRET Fold Response (GCGR; 0.1μM tracer): 0.90; NanoBRET Fold Response (GCGR; 1μM tracer): 1.05; NanoBRET Fold Response (NPBWR2; 0.1μM tracer): 1.08; NanoBRET Fold Response (NPBWR2; 1μM tracer): 0.90; NanoBRET Fold Response (HTR4; 0.1μM tracer): 1.03; NanoBRET Fold Response (HTR4; 1μM tracer): 0.95; NanoBRET Fold Response (CXCR3; 0.1μM tracer): 0.79; NanoBRET Fold Response (CXCR3; 1μM tracer): 0.91; NanoBRET Fold Response (HCRTR2; 0.1μM tracer): 1.02; NanoBRET Fold Response (HCRTR2; 1μM tracer): 1.08; NanoBRET Fold Response (OPRK1; 0.1μM tracer): 0.96; NanoBRET Fold Response (OPRK1; 1μM tracer): 0.93
CN1CCN(C2=Nc3cc(Cl)ccc3Nc3ccc(CNC(=O)CCOCCOCCOCCOCCNC(=O)CCc4ccc5n4[B-](F)(F)[N+]4=C(c6ccc[nH]6)C=CC4=C5)cc32)CC1 [Clozapine-b-2-NB590] | – | – | – | – | – | – | – | – | – | – | – | – | NanoBRET Fold Response (GCGR; GCGR, 0.1μM tracer): 1.02; NanoBRET Fold Response (GCGR; GCGR, 1μM tracer): 1.04; NanoBRET Fold Response (NPBWR2; NPBWR2, 0.1μM tracer): 0.99; NanoBRET Fold Response (NPBWR2; NPBWR2, 1μM tracer): 1.08; NanoBRET Fold Response (HTR4; HTR4, 0.1μM tracer): 0.98; NanoBRET Fold Response (HTR4; HTR4, 1μM tracer): 0.99; NanoBRET Fold Response (CXCR3; CXCR3, 0.1μM tracer): 0.97; NanoBRET Fold Response (CXCR3; CXCR3, 1μM tracer): 0.94; NanoBRET Fold Response (HCRTR2; HCRTR2, 0.1μM tracer): 0.99; NanoBRET Fold Response (HCRTR2; HCRTR2, 1μM tracer): 0.98; NanoBRET Fold Response (OPRK1; OPRK1, 0.1μM tracer): 0.99; NanoBRET Fold Response (OPRK1; OPRK1, 1μM tracer): 0.96
COc1ccccc1N1CCN(CCCCN2C(=O)c3ccc(CNC(=O)CCOCCNC(=O)c4ccc(CNC(=O)CCc5ccc6n5[B-](F)(F)[N+]5=C(c7ccc[nH]7)C=CC5=C6)cc4)cc3C2=O)CC1 [NAN-190-3-NB590] | 0.84 | 0.76 | 0.96 | 0.79 | 1.00 | 1.03 | 0.97 | 1.01 | 0.98 | 0.97 | 0.89 | 1.16 | –
N#CN=C(NCCCOc1cccc(CN2CCCCC2)c1)NCCNC(=O)CCOCCOCCOCCOCCNC(=O)CCc1ccc2n1[B-](F)(F)[N+]1=C(c3ccc[nH]3)C=CC1=C2 [Aminopotentidine-2-NB590] | 0.95 | 1.04 | 1.04 | 0.92 | 0.97 | 1.05 | 1.33 | 1.05 | 1.01 | 0.97 | 1.14 | 1.07 | –
CN(C)CCC=C1c2ccccc2CCc2ccc(C(=O)NCCNC(=O)CCOCCOCCOCCOCCNC(=O)CCc3ccc4n3[B-](F)(F)[N+]3=C(c5ccc[nH]5)C=CC3=C4)cc21 [Amitriptyline-b-2-NB590] | 0.91 | 1.03 | – | – | – | – | – | – | – | – | – | – | NanoBRET Fold Response (NPBWR2; tracer at 0.1μM): 1.01; NanoBRET Fold Response (NPBWR2; tracer at 1μM): 0.95; NanoBRET Fold Response (HTR4; tracer at 0.1μM): 1.03; NanoBRET Fold Response (HTR4; tracer at 1μM): 1.09; NanoBRET Fold Response (CXCR3; [1]): 1.05; NanoBRET Fold Response (CXCR3; [2]): 0.98; NanoBRET Fold Response (HCRTR2; [1]): 1.00; NanoBRET Fold Response (HCRTR2; [2]): 0.98; NanoBRET Fold Response (OPRK1; [1]): 1.23; NanoBRET Fold Response (OPRK1; [2]): 1.23
O=C(CCOCCOCCOCCOCCNC(=O)CCc1ccc2n1[B-](F)(F)[N+]1=C(c3ccc[nH]3)C=CC1=C2)NCCCN1CCN(C2=Nc3ccccc3Oc3ccc(Cl)cc32)CC1 [Loxapine-a-2-NB590] | 1.05 | 1.24 | 1.07 | 0.93 | 1.02 | 1.04 | 1.04 | 1.26 | 1.13 | 1.16 | 1.03 | 0.95 | –
